# Assays:
# [1] = test system: RGCs in WT retina; experiment: YO-PRO-1 loading assay (dye permeability of RGCs) in WT retina after intravitreal injection; type: in vivo, mouse; conditions: for percentage of YO-PRO-1 positive cells: intravitreal injection 3-7 days before, ATRA 100 nM, liarozole 100 μM, retinaldehyde 1 μM, DEAB 20 μM; for Yo-Pro-1 labeling of WT-RGCs, result in words: WT retina, substance injected intravitreally alone
# Experimental: (§1) Intravitreal Injections. Before injection, mice were anesthetized with isoflurane (2%) and their pupils were dilated with tropicamide (1%) and phenylephrine (2.5%). Proparacaine (0.5%) was used as a topical analgesic. Genteal was applied under a glass coverslip to keep the cornea lubricated. An incision was made through the sclera below the ora serrata with a 30G needle and ˜1 μl of solution was injected into the vitreous with a blunt-ended 33G Hamilton syringe. After injection, the antibiotic tobramycin (0.3%) was applied to the eye. Final drug concentrations after intravitreal injection were: all-trans retinoic acid (ATRA, 100 nM), liarozole (100 μM), diethylaminobenzaldehyde (DEAB, 20 μM), citral (50 μM), BMS-493 (500 nM), and retinaldehyde (1 μM). The above values correspond to the final concentration in the eye after injecting 1 μl of drug accounting for a 5-fold dilution. An injection of PBS including 1% DMSO was used as vehicle control.
# (§2) Yo-PRO-1 Loading Assay. After dissection, retinas were cut into thirds and mounted on a windowed nitrocellulose filter paper. Retinas were treated with 200 nM Yo-PRO-1 (Life Technologies) in oxygenated ACSF for 15 minutes, followed by treatment and then treated with nuclear ID (Enzo Life Sciences) at a 1:500 dilution for 3 minutes. ACSF was perfused continuously at 3 ml/min for a period of 5 minutes to wash away excess dye. In experiments employing TNP-ATP (200 μm), the retinas was pretreated with the compound for ten minutes before beginning YO-PRO-1 treatment.
# (§3) Image analysis. All image analysis was performed using ImageJ or Fiji software (55,56). Yo-PRO-1 loading assay, ROIs were manually selected using the nuclear-ID channel based upon morphological characteristics. This was performed after computationally flattening the retina by performing a maximum Z projection onto a single plane. Following this, a background subtraction was performed with a rolling radius of 50 pixels. Cells identified as vascular endothelial cells or pericytes were not included in the analysis. This was confirmed using transillumination. A threshold for YO-PRO-1 loading was established by measuring the level of autofluorescence of untreated retinas in each channel and finding a baseline value with +2SD being the threshold for a YO-PRO-1 positive cell. Nuclear-ID was used to count the total number of cells within a field of view. The percentage of cells above the threshold was then calculated for comparison. For analysis of RARE double reporter virus assay, ROIs were manually selected on the RFP channel first and then superimposed to the GFP channel. Single cell values for both RFP and GFP were filtered by using a RFP minimum threshold established in naive unlabeled retinas.
# (§4) Injections. Intravitreal injections: Adult mice and rats were intravitreally injected with drugs or viruses. Before injection, animals were anesthetized with isoflurane (2%) and their pupils were dilated with tropicamide (1%) and phenylephrine (2.5%). Proparacaine (0.5%) was used as a topical analgesic. Genteal was applied under a glass coverslip to keep the cornea lubricated. An incision was made through the sclera below the ora serrata with a 30G needle. Solutions were injected into the vitreous with a blunt-ended 33G Hamilton syringe. After injection, the antibiotic tobramycin (0.3%) was applied to the eye. Final drug concentrations (after 5-fold dilution in the vitreous) were: 100 nM all-trans retinoic acid (ATRA), 100 μM liarozole (24), 20 μM diethylaminobenzaldehyde (DEAB) (28,93), 50 μM citral, 500 nM BMS 493 (85), 1 μM retinaldehyde, and vehicle comprising of 1× phosphate buffered saline (PBS) containing 1% dimethyl sulfoxide (DMSO). Intravitreal injections were performed using AAV2 serotype only. WT and rd1 mice were injected with the RAR-reporter virus or the RARDN virus, at age 1-1.5 month-old. WT and s334ter rats were injected with the RAR-reporter virus at age 3-4 month-old. Final volume of injections was 1-1.5 μL for mice and 5 μL for rats. […]
# [2] = test system: gap junctions; conditions: micromolar concentrations are required; cited from earlier work
# [3] = test system: RGCs in rd1 retina; experiment: MEA recording of photoswitch (QAQ, BENAQ) photosensitization in rd1 retina; type: in vivo, mouse; conditions: rd1 retina without BMS-493, mean±SEM
# Experimental: as §1
# (§5) Multi Electrode Array Recordings. For extracellular recordings, a flat-mounted retina was placed ganglion cell layer down onto a 60-electrode Multi-Electrode Array (MEA 1060-2-BC, Multi-Channel Systems). After mounting the retina, photoswitches were applied for 30 min, followed by a 15 min wash. BENAQ was applied at a concentration of 100 μM and QAQ at 300 μM. A solution containing a mixture of neurotransmitter receptor blockers isolated RGCs from synaptic inputs: (in μM) 10 AP4, 40 DNQX, 30 AP5, 10 SR-95531, 50 TPMPA, 10 strychnine, and 50 tubocurarine. Extracellular spikes were high-pass filtered at 200 Hz and digitized at 20 kHz and were counted when exceeding 4 SD from the mean background voltage signal. Typically, each electrode recorded spikes from one to three individual RGCs. Principal component analysis of the spike waveforms was used for sorting spikes generated by individual cells (Offline Sorter, Plexon). Stimulation light was generated from a mercury arc lamp. Unfiltered broad spectrum light was used for BENAQ-treated retinas. Narrow band optical filters (Chroma) were used to deliver alternating intervals of 380 nm and 500 nm for stimulation of QAQ-treated as described previously (5,12). The Photoswitch Index (5) (PI) was established for individual retinas in light/darkness for treatment with BENAQ or in 380 nm/500 nm light for treatment with QAQ (11,12).
# as §4, with “month-old.” for “month-old. WT and s334ter rats were injected with the RAR-reporter virus at age 3-4 month-old. Final volume of injections was 1-1.5 μL for mice and 5 μL for rats.”
# [4] = test system: RGCs in rd1 retina; experiment: YO-PRO-1 loading assay (dye permeability of RGCs) in rd1 retina after intravitreal injection; type: in vivo, mouse; conditions: for Yo-Pro-1 labeling of rd1-RGCs, result in words: rd1, intravitreal injection, compared to vehicle-injected; for percentage of YO-PRO-1 positive cells (fraction of RGC nuclei labeled): rd1 mice, intravitreal injection, measured 3-7 days after, BMS-493 500 nM, DEAB 20 uM, citral 50 uM, mean±SEM
# Experimental: as §1, §2, §3, §4
# [5] = test system: RGCs in WT retina; experiment: MEA recording of photoswitch (QAQ, BENAQ) photosensitization in WT retina; type: in vivo, mouse
# Experimental: as §1, §5
# Injections. Intravitreal injections: Adult mice and rats were intravitreally injected with drugs or viruses. Before injection, animals were anesthetized with isoflurane (2%) and their pupils were dilated with tropicamide (1%) and phenylephrine (2.5%). Proparacaine (0.5%) was used as a topical analgesic. Genteal was applied under a glass coverslip to keep the cornea lubricated. An incision was made through the sclera below the ora serrata with a 30G needle. Solutions were injected into the vitreous with a blunt-ended 33G Hamilton syringe. After injection, the antibiotic tobramycin (0.3%) was applied to the eye. Final drug concentrations (after 5-fold dilution in the vitreous) were: 100 nM all-trans retinoic acid (ATRA), 100 μM liarozole (24), 20 μM diethylaminobenzaldehyde (DEAB) (28,93), 50 μM citral, 500 nM BMS 493 (85), 1 μM retinaldehyde, and vehicle comprising of 1× phosphate buffered saline (PBS) containing 1% dimethyl sulfoxide (DMSO). Intravitreal injections were performed using AAV2 serotype only. WT and rd1 mice were injected with the RAR-reporter virus or the RARDN virus, at age 1-1.5 month-old. WT and s334ter rats were injected with the RAR-reporter virus at age 3-4 month-old. Final volume of injections was 1-1.5 μL for mice and 5 μL for rats.
# Multi Electrode Array Recordings. Flat-mounted retina was placed ganglion cell layer down onto a 60-electrode Multi-Electrode Array (MEA 1060-2-BC, Multi-Channel Systems). After mounting the retina was left to dark adapt for 20 minutes under constant perfusion with oxygenated saline at 34° C. 300 μM QAQ at was applied for 30 min, followed by a 5 min wash. […]
molecule,measurement,setting,value
"CC1=C(/C=C/C(C)=C/C=C/C(C)=C/C=O)C(C)(C)CCC1 [Retinaldehyde, retinaldehyde]",percentage of YO-PRO-1 positive cells,"[1]; WT mice, mean±SEM",14.6±2.29%
same,"Yo-Pro-1 labeling of WT-RGCs, result in words",[1],significantly increasing Yo-Pro-1 labeling above baseline
Cc1ccc(Cl)c(Nc2ccccc2C(=O)O)c1Cl [Meclofenamic acid],effect on RGC light responses,[2],augments RGC light responses by reducing hyperactivity
"CC[N+](CC)(CC)CC(=O)Nc1ccc(N=Nc2ccc(NC(=O)C[N+](CC)(CC)CC)cc2)cc1 [QAQ, quaternary ammonium-azobenzene-quaternary ammonium]",Photoswitch Index (PI) of QAQ,"[3]; QAQ 300 μM, 380/500 nm",0.63±0.12
CC(C)=CCCC(C)=CC=O [citral],"Yo-Pro-1 labeling of rd1-RGCs, result in words",[4],significantly reduced the percentage of rd1-RGCs labeled with Yo-Pro-1
same,percentage of YO-PRO-1 positive cells (fraction of RGC nuclei labeled),[4],9.87±2.39%
"CCN(CC)c1ccc(C=O)cc1 [DEAB, diethylaminobenzaldehyde]","percentage of YO-PRO-1 positive cells, retinaldehyde co-injected with DEAB","[1]; WT mice, co-injection with retinaldehyde, 3-7 days before imaging, mean±SEM",7.65±1.34%
same,percentage of YO-PRO-1 positive cells,"[1]; WT mice, mean±SEM",7.47±1.21%
same,"Yo-Pro-1 labeling of WT-RGCs, result in words",[1],caused no change in Yo-Pro-1 labeling
same,"Yo-Pro-1 labeling of rd1-RGCs, result in words",[4],significantly reduced the percentage of rd1-RGCs labeled with Yo-Pro-1
same,percentage of YO-PRO-1 positive cells (fraction of RGC nuclei labeled),[4],19.77±2.32%
Clc1cccc(C(c2ccc3[nH]cnc3c2)n2ccnc2)c1 (stereo not shown) [liarozole],percentage of YO-PRO-1 positive cells,"[1]; WT mice, mean±SEM",8.66±1.36%
same,"Yo-Pro-1 labeling of WT-RGCs, result in words",[1],had no effect by itself
same,"QAQ photosensitization of WT retina, in words","[5]; WT retina, 3-7 days after intravitreal injection",Neither ATRA nor liarozole alone enabled significant QAQ photosensitization
same,Photoswitch Index (PI) with QAQ,"[5]; WT retina, 3-7 days after intravitreal injection, QAQ 300 μM, mean±SEM",0.27±0.13
"CCN(Cc1ccccc1)c1ccc(/N=N/c2ccc(NC(=O)C[N+](CC)(CC)CC)cc2)cc1 [BENAQ, benzylethylamino-azobenzene-quaternary ammonium]",Photoswitch Index (PI) of BENAQ,[3]; white light/darkness,0.56±0.03
TNP-ATP,"percentage of YO-PRO-1 positive cells, ATRA-induced labeling with blocker","[1]; WT mice injected with ATRA, TNP-ATP bath-applied ex vivo or BMS-493 co-injected, mean±SEM",0.39±0.31%
same,"Photoswitch Index (PI) with QAQ, ATRA plus liarozole with TNP-ATP","[5]; WT retina injected with ATRA plus liarozole, TNP-ATP bath-loaded, mean±SEM",0.19±0.14
same,"effect on QAQ photosensitization induced by ATRA plus liarozole, in words","[5]; WT retina, TNP-ATP bath-loaded",blocked by TNP-ATP

# From patent US20240398738A1, “MANIPULATION OF THE RETINOIC ACID SIGNALING PATHWAY” (THE REGENTS OF THE UNIVERSITY OF CALIFORNIA, priority 2017, published 2024)
